Measurements as given in PMC11045764, “The dual coding of a single sex pheromone receptor in Asian honeybee Apis cerana” (Communications Biology, 2024).

Experiments:
AcerOr11 [1] = tested on: T1, AcerOr11; test: two-electrode voltage clamp in Xenopus oocytes (agonist, dose-response and I-V curves); type: cell-based, Apis cerana
T1 construct: gene Or11; AcerOr11 co-expressed with AcerOrco in Xenopus laevis oocytes; with AcerOrco

AcerOr11 [2] = tested on: T1, AcerOr11; test: two-electrode voltage clamp in Xenopus oocytes (inverse currents; also inhibits 9-ODA-evoked currents); type: cell-based, Apis cerana

Row | Compound | EC50 (AcerOr11 [1]) [nM] | EC50 (AcerOr11 [2]) [nM]
1 | CC(=O)CCCCC/C=C/C(=O)O [9-ODA, 9-oxo-(E)-2-decenoic acid] | 0.35 | –
2 | COC(=O)c1ccc(O)cc1 [HOB, methyl p-hydroxybenzoate] | – | 150
